Source: patent publication US20250127755A1, “PHARMACOLOGICAL DEPLETION OF HEME FOR THE TREATMENT OF MYELODYSPLASTIC SYNDROME” (THE SCRIPPS RESEARCH INSTITUTE, priority 2021, published 2025)

Tests used:
MDS-L cells [1] = test: MDS-L differentiation assay (GlyA positivity, 384-well FACS-based); details: for inducing differentiation to more terminal blood lineages (GlyA immunopositivity): 384-well FACS-based assay; for Maximal MDS-LGlyA fold induction: human; for EC50: read-out: MDS-L GlyA induction EC50
Description: MDS-L differentiation assay. Given a limited number of patient samples and the low yield from each biopsy, it is not tractable to conduct high-throughput screens with primary cells.
To establish a screening assay, we selected known differentiation inducers of acute myeloid leukemia cells including retinoic acid (ATRA), Brequinar, and phorbol 12-myristate 13-acetate (PMA).
MDS-L were cultured in RPMI (17-105-CV, Corning) without phenol red and supplemented with 2 mM glutamine and 10% FBS. Cells first expanded in IL-3 until 70% confluence then pre-conditioned for 14 days with IL-3 (200-03, PeproTech), GCSF (300-23, PeproTech), and EPO (287-TC, R&D Systems) to promote erythroid and myeloid differentiation. A density of 10000 cells per well were used in phenotypic assays. MDSL cells were spun and treatment media was replaced with media containing APC Anti-CD235a (GlyA) (551336. BD Biosciences) (1.25 μL per 50 μL test) and incubated for 1 hour at 4° C. Cells were washed then counter stained with SYTOX-Green 1 μM per 100 μL prior to flow cytometry, analysis. Dose response and pharmacological assays were analyzed using a ZE5 Cell Analyzer (BioRad) equipped with Everest software. Single, live, cells were analyzed for GlyA expression using FlowJo v10.7.2 software.

MDS-L cells [2] = test: Heme levels of MDS-L cells; format: cell-based; details: over relevant time periods, FIG. 4B
Description: FIG. 4A-FIG. 4C. Heme depletion induces terminal differentiation of MDS-L cells. A: Relative induction of GlyA positive MDS-L cells in response to treatment for 96 hours with the indicated concentrations of NMPP. B: Heme levels of MDS-L cells treated with the indicated compounds. C: Relative induction of GlyA positive cells after 96-hour treatment with artemisone and hemin.
An additional consequence of this mechanism is the alkylation of artemisinin to heme, resulting in its functional inactivation. Because we found no other reactive oxygen species (ROS)-inducers or alkylators as active hits from the screen, we reasoned that heme depletion is a way in which artemisinins promote differentiation of this cellular population.

MDS-L cells [3] = test: CFU assays of MDS-L cells; format: cell-based
MDS-L cells [4] = test: Loss of CD71; format: cell-based
MDS-L cells [5] = test: Induction of apoptosis; format: cell-based; details: below 20 μM

Compound: C[C@@H]1CC[C@H]2[C@@H](C)C(=O)O[C@@H]3O[C@@]4(C)CC[C@@H]1[C@]32O4 [2-deoxy-artemisinin]
- activity in differentiation assays (MDS-L cells [1]): inactive

Compound: CCCCCCCCCCCCCC(=O)O[C@@H]1[C@@H](C)[C@@]2(O)[C@@H](C=C(CO)C[C@]3(O)C(=O)C(C)=C[C@@H]23)[C@@H]2C(C)(C)[C@]12OC(C)=O [PMA, phorbol 12-myristate 13-acetate]
- inducing differentiation to more terminal blood lineages (GlyA immunopositivity) (MDS-L cells [1]; MDS-L cells): efficacious

Compound: CC1=C(/C=C/C(C)=C/C=C/C(C)=C/C(=O)O)C(C)(C)CCC1 [ATRA, retinoic acid]
- cytotoxicity as readout by live dead cell gating (MDS-L cells [1]; MDS-L cells, FIG. 2): minimal cytotoxicity

Compound: C[C@H]1[C@@H](O)O[C@@H]2O[C@@]3(C)CC[C@H]4[C@H](C)CC[C@@H]1[C@@]24OO3 [Dihydroarte misin, dihydroartemisinin]
- Maximal MDS-LGlyA fold induction (MDS-L cells [1]): 7.09 fold
- EC50 (MDS-L cells [1]): 0.61 µM

Compound: C[C@H]1[C@@H](OCc2ccc(C(=O)O)cc2)O[C@@H]2O[C@@]3(C)CC[C@H]4[C@H](C)CC[C@@H]1[C@@]24OO3 [Artelinic acid (artelinate), Artelinic acid]
- Maximal MDS-LGlyA fold induction (MDS-L cells [1]): 7.26 fold
- EC50 (MDS-L cells [1]): 0.03 µM

Compound: N-methylprotoporphyrin [NMPP]
- GlyA positivity in MDS-L cells (MDS-L cells [1]; treatment for 96 hours, FIG. 4A): increase
- levels of labile heme in MDS-L cells (MDS-L cells [2]): efficiently reduced

Compound: Cc1c(-c2ccc(-c3ccccc3F)cc2)nc2ccc(F)cc2c1C(=O)O [Brequinar]
- inducing differentiation to more terminal blood lineages (GlyA immunopositivity) (MDS-L cells [1]; MDS-L cells): efficacious

Compound: C[C@H]1[C@H](OC(=O)CCC(=O)O)O[C@@H]2O[C@@]3(C)CC[C@H]4[C@H](C)CC[C@@H]1[C@@]24OO3 (stereo in doubt) [Artesunate]
- Maximal MDS-LGlyA fold induction (MDS-L cells [1]): 7.51 fold
- EC50 (MDS-L cells [1]): 0.85 µM

Compound: c1cc([C@H]2CC[C@]3(CC2)OOC2(O3)[C@@H]3C[C@H]4C[C@H](C[C@@H]2C4)C3)ccc1OCCN1CCOCC1 (stereo partly drawn) [Artefenomel (OZ-439), Artefenomel]
- Maximal MDS-LGlyA fold induction (MDS-L cells [1]): 3.71 fold
- EC50 (MDS-L cells [1]): 5.65 µM

Compound: C[C@H]1[C@H](N2CCS(=O)(=O)CC2)O[C@@H]2O[C@@]3(C)CC[C@H]4[C@H](C)CC[C@@H]1[C@@]24OO3 [Artemisone]
- potential to induce differentiation of MDS-L cells on addition of exogenous heme (hemin) (MDS-L cells [1]; 96-hour treatment with artemisone and hemin, FIG. 4C): suppressed
- Maximal MDS-LGlyA fold induction (MDS-L cells [1]): 6.84 fold
- EC50 (MDS-L cells [1]): 0.15 µM
- number of BFU-E, CFU-GM and CFU-GEMM type colonies (MDS-L cells [3]): decreasing
- terminal differentiation of MDS-L cells to CFU-Es (MDS-L cells [3]): efficaciously induced
- loss of CD71 (MDS-L cells [4]): efficaciously promoted
- induction in apoptosis (MDS-L cells [5]): no significant induction
- levels of labile heme in MDS-L cells (MDS-L cells [2]): efficiently reduced

Compound: CC(C)(N)CNC(=O)C[C@H]1CC[C@]2(CC1)OO[C@]1(O2)[C@@H]2C[C@H]3C[C@@H](C2)C[C@@H]1C3 [Arterolane (OZ-277), Arterolane]
- Maximal MDS-LGlyA fold induction (MDS-L cells [1]): 7.02 fold
- EC50 (MDS-L cells [1]): 1.74 µM

Compound: CCO[C@H]1O[C@@H]2O[C@@]3(C)CC[C@H]4[C@H](C)CC[C@@H]([C@H]1C)[C@@]24OO3 [Arteether]
- Maximal MDS-LGlyA fold induction (MDS-L cells [1]): 3.82 fold
- EC50 (MDS-L cells [1]): 0.58 µM
- number of BFU-E, CFU-GM and CFU-GEMM type colonies (MDS-L cells [3]): decreasing
- terminal differentiation of MDS-L cells to CFU-Es (MDS-L cells [3]): efficaciously induced
- loss of CD71 (MDS-L cells [4]): efficaciously promoted
- induction in apoptosis (MDS-L cells [5]): no significant induction
